pIC50: −log10 of the molar value.
Assays:
Plasmodium falciparum [1] = experiment: Hit confirmation in dose-response curve in NF54 pLDH assay, at 72h; format: functional, organism-based; parameters: timepoint 72 hour; conditions: NF54, Erythrocyte
Plasmodium falciparum [2] = experiment: Hit confirmation in dose-response curve in NF54 nanoGlo assay, at 12h; format: functional, organism-based, Erythrocyte; parameters: timepoint 12 hour; conditions: Plasmodium falciparum, NF54, Erythrocyte, 12 h
[3] = Hit confirmation in dose-response curve in HepG2 cytotoxicity assay, at 72h; format: toxicity, cell-based; parameters: timepoint 72 hour; conditions: human, HepG2 cells
Plasmodium falciparum [4] = experiment: Hit confirmation in dose-response curve in Dd2 pLDH assay, at 72h; format: functional, organism-based; parameters: timepoint 72 hour; conditions: Dd2, Erythrocyte
Plasmodium falciparum [5] = experiment: Hit confirmation in dose-response curve in NF54 nanoGlo assay, at 72h; format: functional, organism-based, Erythrocyte; parameters: timepoint 72 hour; conditions: Plasmodium falciparum, NF54, Erythrocyte, 72 h

| Compound | pIC50 (Plasmodium falciparum [1]) | pIC50 (Plasmodium falciparum [2]) | IC50 at 72 h [3] | pIC50 (Plasmodium falciparum [4]) | pIC50 (Plasmodium falciparum [5]) |
| --- | --- | --- | --- | --- | --- |
| COc1ccccc1CN(C(=O)c1ccc(C)cc1)c1ccc(CC(=O)NCCN2CCCCC2)cc1 | 6.29 | < 5.00 | > 10 µM | < 5.00 | 5.50 |
| COc1cccc(S(=O)(=O)N2CCCN(Cc3ccncc3)[C@H](c3ccccc3)CC(=O)NCC2)c1 | 5.49 | 5.55 | > 10 µM | 5.66 | 6.03 |
| CC(C)c1ccc(Oc2cnn(-c3cccc(Cl)c3)c(=O)c2Nc2cccc(C(=O)NC3CC3)c2)cc1 | 5.00 | < 5.00 | > 10 µM | 5.18 | 5.52 |
| CCC(=O)N1CCc2sc(S(=O)(=O)N3CCN(c4cc(C)ccc4C)CC3)cc2C1 | < 5.00 | < 5.00 | > 10 µM | < 5.00 | 5.23 |
| CCc1cccc(NC(=O)N2CCC3(CC2)C(=O)N(CC(=O)Nc2ccc(F)cc2)CN3c2ccccc2)c1 | 4.97 | 5.53 | > 10 µM | 5.17 | 5.52 |
| COc1ccc(S(=O)(=O)N2CCC(c3cc(N)on3)CC2)cc1Cl | 5.20 | < 5.00 | > 10 µM | 5.41 | 5.74 |
| COc1ccc2[nH]c3c(c2c1)CCN(C(=O)c1ccc(C)c(C)c1)[C@@H]3c1ccccc1OC | 5.45 | 5.06 | > 10 µM | 5.59 | 5.76 |
| CCc1nc2cc(N3CCC(C(=O)Nc4ccc5c(c4)OCO5)CC3)cnc2nc1CC | < 5.00 | 6.38 | > 10 µM | < 5.00 | 5.89 |
| Cc1c(F)cccc1NC(=O)N1CCN(C2=CC3=N[C@@H](C)CN3C=N2)CC1 | 5.57 | < 5.00 | > 10 µM | 5.39 | 5.44 |
| CC1CCN(C[C@H]2CCCCCN2C(=O)NCCc2ccccc2)CC1 | 5.61 | < 5.00 | > 10 µM | 5.20 | 5.40 |
| CC[C@H]1CN2C=NC(N3CCN(C(=O)Nc4cc(F)cc(F)c4)CC3)=CC2=N1 | 5.90 | < 5.00 | > 10 µM | 5.47 | 5.55 |
| Cc1oc(-c2ccn[nH]2)cc1S(=O)(=O)Nc1ccc(F)c(Cl)c1 | < 5.00 | 5.59 | > 10 µM | < 5.00 | 5.27 |
| Cc1nn(-c2ccccc2)c2nc(Cc3ccccc3)nc(N3CCCN(C(=O)NC4CCCCC4)CC3)c12 | < 5.00 | 5.56 | > 10 µM | < 5.00 | 5.30 |
| COc1ccc(CN2CC[C@@H]3C(=O)NCCCCCCN(Cc4ccncc4)[C@@H]3C2)cc1Cn1ccnc1 | 5.94 | 5.15 | > 10 µM | 5.93 | 5.96 |
| CCC(C(=O)Nc1ccc2c(c1)CN(CCc1ccc(OC)c(OC)c1)C(=O)C(C)O2)c1ccccc1 (stereo not given) | 5.54 | 6.04 | > 10 µM | 5.74 | 6.54 |
| O=C(N1CCCN(c2nc3ccccc3nc2-c2ccccc2)CC1)C(Cl)(Cl)Cl | 5.14 | 5.05 | > 10 µM | 5.29 | 5.54 |
| Cc1oc(-c2ccn[nH]2)cc1S(=O)(=O)Nc1cccc(Cl)c1 | 5.11 | 6.03 | > 10 µM | < 5.00 | 5.83 |
| Cc1nnc(-c2ccc3ccn(CC(=O)Nc4ccc(F)c(Cl)c4)c3c2)o1 | 6.00 | 5.50 | > 10 µM | 5.57 | 5.70 |

| Compound | pIC50 (Plasmodium falciparum [1]) | pIC50 (Plasmodium falciparum [2]) | IC50 at 72 h [3] | pIC50 (Plasmodium falciparum [4]) | pIC50 (Plasmodium falciparum [5]) |
| --- | --- | --- | --- | --- | --- |
| COc1ccc(CCNC(=O)c2cc3c(=O)[nH]c(C)cn3n2)cc1OC | < 5.00 | 6.34 | > 10 µM | < 5.00 | 5.84 |
| O=C(NCCN1CCCC1)c1ccc2nc(-c3ccc(Cl)cc3)cn2c1 | 5.57 | 5.39 | > 10 µM | 5.58 | 5.58 |
| O=C(Nc1cc(-c2onc3c2CCCC3)cc(C(F)(F)F)c1)c1cncc(Br)c1 | 5.49 | 5.90 | > 10 µM | 5.56 | 5.92 |
| Cc1ccc(NC(=O)Nc2cc(C)ccc2N2CCCN(Cc3ccc(F)cc3)C2=O)cc1 | 4.85 | < 5.00 | > 10 µM | < 5.00 | 5.26 |
| CC(Oc1ccc2c(c1)C(c1ccccc1)N(Cc1ccccc1F)CC2)C(=O)NC1CC1 (stereo not given) | 5.12 | < 5.00 | > 10 µM | 5.46 | 5.57 |
| O=C(Cc1ccc(N(Cc2cccc(F)c2)C(=O)C2CCCC2)cc1)NCCN1CCCC1 | 5.30 | < 5.00 | > 10 µM | < 5.00 | 5.40 |
| CCc1cccc(NC(=O)N2CCN(C3=CC4=NC[C@H](C)N4C=N3)CC2)c1 | 5.95 | < 5.00 | > 10 µM | 5.53 | 5.51 |
| COc1cccc(NC(=O)Cn2c(C)ccc(NS(=O)(=O)c3ccc(C)cc3)c2=O)c1 | 5.10 | 5.04 | > 10 µM | 5.44 | 5.49 |
| O=C(NCc1ccccc1F)C1CCN(c2cncnc2N2CCCC2)CC1 | < 5.00 | 5.06 | > 10 µM | 5.14 | 5.45 |
| CC(C)(C)n1nc2nc(NCCN3CCCCC3)nc(-c3ccc(F)c(Cl)c3)c2c1N | 5.54 | 5.22 | > 10 µM | 5.55 | 5.79 |
| CC(C)CCn1nnnc1[C@]1(N(C)C)CCCN(C(=O)c2cccn2C)C1 | < 5.00 | 6.56 | > 10 µM | < 5.00 | 6.51 |
| COCCNC(=O)c1ccc(-n2nc(-c3nnc(C)o3)c(C)c2-c2ccc(OC)cc2)cc1 | < 5.00 | 5.44 | > 10 µM | < 5.00 | 5.49 |
| CC(C)c1cccc(Nc2nc3ccncc3n(C(C)C)c2=O)c1 | 5.55 | 5.48 | > 10 µM | 5.68 | 5.78 |
| O=C(Cc1ccc(N(Cc2cccc(F)c2)C(=O)C2CCCC2)cc1)NCCN1CCCCC1 | 6.21 | < 5.00 | > 10 µM | 6.14 | 6.30 |
| CCn1ncc(CN2CC[C@@H]3C(=O)NCCCCCCN(Cc4ccncc4)[C@@H]3C2)c1C | 5.90 | < 5.00 | > 10 µM | 5.44 | 5.43 |
| COc1ccc(CCNc2nc(-c3ccc(OC)cc3F)c3c(N)n(-c4ccc(Cl)cc4)nc3n2)cc1 | < 5.00 | 5.31 | > 10 µM | 5.18 | 5.45 |
| CCN1CCN(C(=O)c2ccccc2N2CCC(NC(=O)c3cccc(Br)c3)CC2)CC1 | 5.78 | < 5.00 | > 10 µM | 5.27 | 5.60 |

Source: ChEMBL document CHEMBL4888484, “Replenishing the malaria drug discovery pipeline: Screening and hit evaluation of the MMV Hit Generation Library 1 (HGL1) against asexual blood stage Plasmodium falciparum ,using a nano luciferase reporter read-out” (2022)
